Results published in patent US9365614B2, “IAP BIR domain binding compounds” (priority 2006, dated 2016).
*1 amine or outer side, *2 acyl side, *3 side chain or, on linkers, in order; H or OH if unused. Where a SMILES comes first, the peptide text is derived from it. Bridges are numbered along the chain shown (N, C = ends). Roman numbers before positions name the chains, in order. [ ]: non-standard residue; d: D form. The star is where a group is joined. cisHyp = O=C(O)[C@@H]1C[C@H](O)CN1; pXylylene = c1cc(C[*:2])ccc1C[*:1]; NHPhenethyl = c1ccc(CCN*)cc1; Tle = CC(C)(C)[C@H](N)C(=O)O; NMeA = CN[C@@H](C)C(=O)O

System: SKOV-3 cells
Experiment: Survival MTT assay, SKOV-3
Format: cell-based
Conditions: Homo sapiens, SK-OV-3, 72 h, read-out: EC50 against SKOV3
Description: One day prior the treatment with compound, 2000 to 4000 cells per well were plated in a tissue culture treated 96 well format dish with 100 ul of media and incubated at 37° C., 5% CO2. On the day of compound treatment, compounds were diluted with cell culture media to a working stock concentration of 2×. 100 uL of diluted compound were then added to each well. The treated plate was incubated for 72 h at 37° C., 5% CO2. Upon incubation, the cell viability was assessed as followed 20 uL of MTT reagent at 5 mg/ml were added per well to cell plate. The plate was incubated for 2 h at 37° C. in presence of 5% CO2. The supernatant was then removed from the plate and 100 uL of isopropanol were added. The absorbance was measured in a TECAN spectrophotometer at 570 nm. The percentage of viability was expressed in percentage of the signal obtained with non treated cells.

Question: For `CN[C@@H](C)C(=O)N[C@H](C(=O)N1C[C@@H](NC(=O)c2ccc(C(=O)N[C@H]3C[C@@H](CN(CCc4ccc(F)cc4)S(C)(=O)=O)N(C(=O)[C@@H](NC(=O)[C@H](C)NC)C(C)(C)C)C3)cc2)C[C@H]1CN(CCc1ccc(F)cc1)S(C)(=O)=O)C(C)(C)C` [Compound 30], which EC50 is on record?
Answer: 188 nM

Question: Which EC50 does the source give for `CN[C@@H](C)C(=O)N[C@H](C(=O)N1C[C@@H](OCc2ccc(CO[C@H]3C[C@@H](C(=O)NCCc4ccccc4)N(C(=O)[C@@H](NC(=O)[C@H](C)NC)C(C)(C)C)C3)cc2)C[C@H]1C(=O)NCCc1ccccc1)C(C)(C)C` [Compound 29] (I: H-[NMeA]-[Tle]-[cisHyp]-NHPhenethyl / II: H-[NMeA]-[Tle]-[cisHyp]-NHPhenethyl; linker I:3-II:3 via pXylylene) here?
Answer: 88 nM

Same assay, conditions: Homo sapiens, SK-OV-3, 72 h, read-out: SKOV-3 EC50

Question: Which EC50 does the source give for `CN[C@@H](C)C(=O)N[C@H](C(=O)N1C[C@@H](NC(=O)c2ccc(C(=O)N[C@H]3C[C@@H](CN(CCc4ccc(F)cc4)S(C)(=O)=O)N(C(=O)[C@@H](NC(=O)[C@H](C)NC)C(C)(C)C)C3)cc2)C[C@H]1CN(CCc1ccc(F)cc1)S(C)(=O)=O)C(C)(C)C` [Compound 30] here?
Answer: > 1000 nM

Question: `CN[C@@H](C)C(=O)N[C@H](C(=O)N1C[C@@H](NC(=O)c2ccc(C(=O)N[C@H]3C[C@@H](C(=O)NCc4cccc5ccccc45)N(C(=O)[C@@H](NC(=O)[C@H](C)NC)C(C)(C)C)C3)cc2)C[C@H]1C(=O)NCc1cccc2ccccc12)C(C)(C)C` [Compound 32] was tested. Which EC50 did it give?
Answer: < 250 nM

Question: For `CN[C@@H](C)C(=O)N[C@H](C(=O)N1C[C@@H](NS(=O)(=O)c2ccc3ccc(S(=O)(=O)N[C@H]4C[C@@H](C(=O)N[C@@H]5CCCc6ccccc65)N(C(=O)[C@@H](NC(=O)[C@H](C)NC)C(C)(C)C)C4)cc3c2)C[C@H]1C(=O)N[C@@H]1CCCc2ccccc21)C(C)(C)C` [Compound 58], which EC50 is on record?
Answer: < 250 nM

Question: With `CN[C@@H](C)C(=O)N[C@H](C(=O)N1C[C@@H](CC(=O)c2ccc3ccc(C(=O)N[C@H]4C[C@@H](C(=O)N[C@@H]5CCCc6ccccc65)N(C(=O)[C@@H](NC(=O)[C@H](C)NC)C(C)(C)C)C4)cc3c2)C[C@H]1C(=O)N[C@@H]1CCCc2ccccc21)C(C)(C)C` [Compound 57] as the compound, how does the EC50 read?
Answer: < 50 nM

Question: `CN[C@@H](C)C(=O)N[C@H](C(=O)N1C[C@@H](NC(=O)Nc2ccc(NC(=O)N[C@H]3C[C@@H](C(=O)N[C@@H]4CCCc5ccccc54)N(C(=O)[C@@H](NC(=O)[C@H](C)NC)C(C)(C)C)C3)cc2)C[C@H]1C(=O)N[C@@H]1CCCc2ccccc21)C(C)(C)C` [Compound 44] was tested. Which EC50 did it give?
Answer: < 50 nM

Question: Which EC50 does the source give for `CN[C@@H](C)C(=O)N[C@H](C(=O)N1C[C@@H](NS(=O)(=O)c2cccc(S(=O)(=O)N[C@H]3C[C@@H](C(=O)N[C@@H]4CCCc5ccccc54)N(C(=O)[C@@H](NC(=O)[C@H](C)NC)C(C)(C)C)C3)c2)C[C@H]1C(=O)N[C@@H]1CCCc2ccccc21)C(C)(C)C` [Compound 33] here?
Answer: < 50 nM

Question: How did the EC50 turn out when `CN[C@@H](C)C(=O)N[C@H](C(=O)N1C[C@@H](NC(=O)c2ccc(C(=O)N[C@H]3C[C@@H](CN(CCc4ccccc4)S(C)(=O)=O)N(C(=O)[C@@H](NC(=O)[C@H](C)NC)C(C)(C)C)C3)cc2)C[C@H]1CN(CCc1ccccc1)S(C)(=O)=O)C(C)(C)C` [Compound 26] was run?
Answer: < 250 nM

Question: Which EC50 does the source give for `CN[C@@H](C)C(=O)N[C@H](C(=O)N1C[C@@H](NC(=O)c2ccc(C(=O)N[C@H]3C[C@@H](C(=O)N[C@H](CO)c4ccccc4)N(C(=O)[C@@H](NC(=O)[C@H](C)NC)C(C)(C)C)C3)cc2)C[C@H]1C(=O)N[C@H](CO)c1ccccc1)C(C)(C)C` [Compound 59] here?
Answer: < 250 nM

Question: How did the EC50 turn out when `CN[C@@H](C)C(=O)N[C@H](C(=O)N1C[C@@H](NC(=O)c2ccc(C(=O)N[C@H]3C[C@@H](C(=O)N[C@@H](CO)c4ccccc4)N(C(=O)[C@@H](NC(=O)[C@H](C)NC)C(C)(C)C)C3)cc2)C[C@H]1C(=O)N[C@@H](CO)c1ccccc1)C(C)(C)C` [Compound 54] was run?
Answer: > 1000 nM

Question: For `CN[C@@H](C)C(=O)N[C@H](C(=O)N1C[C@@H](NC(=O)c2ccc(C(=O)N[C@H]3C[C@@H](CN(CCc4ccc(F)cc4)C(C)=O)N(C(=O)[C@@H](NC(=O)[C@H](C)NC)C(C)(C)C)C3)cc2)C[C@H]1CN(CCc1ccc(F)cc1)C(C)=O)C(C)(C)C` [Compound 28], which EC50 is on record?
Answer: < 50 nM

Question: `CN[C@@H](C)C(=O)N[C@H](C(=O)N1C[C@@H](NC(=O)c2ccc(C(=O)N[C@H]3C[C@@H](C(=O)N[C@@H]4CCCc5ccccc54)N(C(=O)[C@@H](NC(=O)[C@H](C)NC)C(C)(C)C)C3)cc2)C[C@H]1C(=O)N[C@H]1CCCc2ccccc21)C(C)(C)C` [Compound 23] was tested. Which EC50 did it give?
Answer: < 50 nM

Question: Which EC50 does the source give for `CC[C@H](N)C(=O)N[C@H](C(=O)N1C[C@@H](NC(=O)c2ccc(C(=O)N[C@H]3C[C@@H](C(=O)N[C@@H]4CCCc5ccccc54)N(C(=O)[C@@H](NC(=O)[C@@H](N)CC)C(C)(C)C)C3)cc2)C[C@H]1C(=O)N[C@@H]1CCCc2ccccc21)C(C)(C)C` [Compound 53] here?
Answer: > 1000 nM

Question: With `CN[C@@H](C)C(=O)N[C@H](C(=O)N1C[C@@H](NC(=O)c2cccc(C(=O)N[C@H]3C[C@@H](C(=O)N[C@@H]4CCCc5ccccc54)N(C(=O)[C@@H](NC(=O)[C@H](C)NC)C(C)(C)C)C3)n2)C[C@H]1C(=O)N[C@@H]1CCCc2ccccc21)C(C)(C)C` [Compound 43] as the compound, how does the EC50 read?
Answer: < 250 nM

Question: `CN[C@@H](C)C(=O)N[C@H](C(=O)N1C[C@@H](OCc2ccc(CO[C@H]3C[C@@H](C(=O)NCCc4ccccc4)N(C(=O)[C@@H](NC(=O)[C@H](C)NC)C(C)(C)C)C3)cc2)C[C@H]1C(=O)NCCc1ccccc1)C(C)(C)C` [Compound 29] (I: H-[NMeA]-[Tle]-[cisHyp]-NHPhenethyl / II: H-[NMeA]-[Tle]-[cisHyp]-NHPhenethyl; linker I:3-II:3 via pXylylene) was tested. Which EC50 did it give?
Answer: < 250 nM

Question: With `CN[C@@H](C)C(=O)N[C@H](C(=O)N1C[C@@H](NC(=O)c2ccc(C(=O)N[C@H]3C[C@@H](C(=O)NCC(c4ccccc4)c4ccccc4)N(C(=O)[C@@H](NC(=O)[C@H](C)NC)C(C)(C)C)C3)cc2)C[C@H]1C(=O)NCC(c1ccccc1)c1ccccc1)C(C)(C)C` [Compound 31] as the compound, how does the EC50 read?
Answer: < 250 nM

Question: With `CN[C@@H](C)C(=O)N[C@H](C(=O)N1CC(NC(=O)CCCCCC(=O)N[C@H]2C[C@@H](C(=O)N[C@@H]3CCCc4ccccc43)N(C(=O)[C@@H](NC(=O)[C@H](C)NC)C(C)(C)C)C2)C[C@H]1C(=O)NC1CCCc2ccccc21)C(C)(C)C` (stereo partly drawn) [Compound 13] as the compound, how does the EC50 read?
Answer: < 50 nM

Question: How did the EC50 turn out when `CN[C@@H](C)C(=O)N[C@H](C(=O)N1C[C@@H](NC(=O)c2ccc(C(=O)N[C@H]3C[C@@H](C(=O)N[C@@H]4CCCc5ccccc54)N(C(=O)[C@@H](NC(=O)[C@H](C)NC)C(C)(C)C)C3)cc2)C[C@H]1C(=O)NC1CCCc2ccccc21)C(C)(C)C` (stereo partly drawn) [Compound 34] was run?
Answer: < 250 nM

Question: For `CN[C@@H](C)C(=O)N[C@H](C(=O)N1C[C@@H](NC(=O)c2ccc(C(=O)N[C@H]3C[C@@H](C(=O)NC(c4ccc(OC)cc4)c4ccc(OC)cc4)N(C(=O)[C@@H](NC(=O)[C@H](C)NC)C(C)(C)C)C3)cc2)C[C@H]1C(=O)NC(c1ccc(OC)cc1)c1ccc(OC)cc1)C(C)(C)C` [Compound 51], which EC50 is on record?
Answer: < 250 nM

Question: With `CN[C@@H](C)C(=O)C[C@H](C(=O)N1C[C@@H](NC(=O)CCCCCCCC(=O)N[C@H]2C[C@@H](C(=O)N[C@@H]3CCCc4ccccc43)N(C(=O)[C@@H](NC(=O)[C@H](C)NC)C(C)(C)C)C2)C[C@H]1C(=O)N[C@@H]1CCCc2ccccc21)C(C)(C)C` [Compound 12] as the compound, how does the EC50 read?
Answer: < 50 nM

Question: `CN[C@@H](C)C(=O)N[C@H](C(=O)N1C[C@@H](NC(=O)c2ccc(C(=O)N[C@H]3C[C@@H](C(=O)NC(c4ccccc4)c4ccccc4)N(C(=O)[C@@H](NC(=O)[C@H](C)NC)C(C)(C)C)C3)cc2)C[C@H]1C(=O)NC(c1ccccc1)c1ccccc1)C(C)(C)C` [Compound 24] was tested. Which EC50 did it give?
Answer: < 50 nM

Question: How did the EC50 turn out when `CN[C@@H](C)C(=O)N[C@H](C(=O)N1C[C@@H](NC(=O)c2ccc(C(=O)N[C@H]3C[C@@H](C(=O)N[C@H](COCc4ccccc4)c4ccccc4)N(C(=O)[C@@H](NC(=O)[C@H](C)NC)C(C)(C)C)C3)cc2)C[C@H]1C(=O)N[C@H](COCc1ccccc1)c1ccccc1)C(C)(C)C` [Compound 64] was run?
Answer: < 50 nM

Question: With `CN[C@@H](C)C(=O)N[C@H](C(=O)N1C[C@@H](NS(=O)(=O)c2ccc(-c3ccc(S(=O)(=O)N[C@H]4C[C@@H](C(=O)N[C@@H]5CCCc6ccccc65)N(C(=O)[C@@H](NC(=O)[C@H](C)NC)C(C)(C)C)C4)cc3)cc2)C[C@H]1C(=O)NC1CCCc2ccccc21)C(C)(C)C` (stereo partly drawn) [Compound 39] as the compound, how does the EC50 read?
Answer: < 50 nM
